Tests used:
Experiment in all cases: increase in dead-cell fraction, 72 h; higher = more death;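 note: breast cancer cell lines in 384-well plates, stained with Hoechst plus LIVE/DEAD far red dye and imaged, cells above an LDR intensity threshold counted dead, Hoechst-negative corpses included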
SHP099 = compound: CC1(CCN(CC1)C2=CN=C(C(=N2)N)C3=C(C(=CC=C3)Cl)Cl)N [SHP099]
Paclitaxel = compound: CC(=O)O[C@H]1C(=O)[C@@]2(C)[C@H]([C@H](OC(=O)c3ccccc3)[C@]3(O)C[C@H](OC(=O)[C@H](O)[C@@H](NC(=O)c4ccccc4)c4ccccc4)C(C)=C1C3(C)C)[C@]1(OC(C)=O)CO[C@@H]1C[C@@H]2O [Paclitaxel]
INK128/MLN0128 = compound: CC(C)n1nc(-c2ccc3oc(N)nc3c2)c2c(N)ncnc21 [INK128/MLN0128]
[1] = compound: CNc1nc(-c2ccc3c(N)n[nH]c3c2)cc(N2C[C@@H](C(=O)NC3CCCCC3)CC[C@H]2C)n1
Ceritinib/LDK378 = compound: Cc1cc(Nc2ncc(Cl)c(Nc3ccccc3S(=O)(=O)C(C)C)n2)c(OC(C)C)cc1C1CCNCC1 [Ceritinib/LDK378]
[2] = compound: Cc1nn(C)c(COc2ccc(N3CCN(S(=O)(=O)N(C)C)CC3)cc2)c1-c1cccc2c(CCCOc3cccc4ccccc34)c(C(=O)O)n(CCN3CCOCC3)c12

Cell Line: AU565
- increase in dead-cell fraction (SHP099; 0.001 µM): -0.0127
- increase in dead-cell fraction (SHP099; 0.003162 µM): -0.0116
- increase in dead-cell fraction (SHP099; 0.01 µM): -0.0073
- increase in dead-cell fraction (SHP099; 0.03162 µM): -0.0133
- increase in dead-cell fraction (SHP099; 0.1 µM): -0.0124
- increase in dead-cell fraction (SHP099; 0.3162 µM): -0.0047
- increase in dead-cell fraction (SHP099; 1 µM): -0.0147
- increase in dead-cell fraction (SHP099; 3.162 µM): 0.0036
- increase in dead-cell fraction (SHP099; 10 µM): -0.0053
- increase in dead-cell fraction (Paclitaxel; 0.0001 µM): 0.0067
- increase in dead-cell fraction (Paclitaxel; 0.0003162 µM): 0.0015
- increase in dead-cell fraction (Paclitaxel; 0.001 µM): 0.0164
- increase in dead-cell fraction (Paclitaxel; 0.003162 µM): 0.226
- increase in dead-cell fraction (Paclitaxel; 0.01 µM): 0.312
- increase in dead-cell fraction (Paclitaxel; 0.03162 µM): 0.333
- increase in dead-cell fraction (Paclitaxel; 0.1 µM): 0.324
- increase in dead-cell fraction (Paclitaxel; 0.3162 µM): 0.278
- increase in dead-cell fraction (Paclitaxel; 1 µM): 0.303
- increase in dead-cell fraction (INK128/MLN0128; 0.0003162 µM): 0.0039
- increase in dead-cell fraction (INK128/MLN0128; 0.001 µM): 0.0034
- increase in dead-cell fraction (INK128/MLN0128; 0.003162 µM): 0.0155
- increase in dead-cell fraction (INK128/MLN0128; 0.01 µM): 0.0233
- increase in dead-cell fraction (INK128/MLN0128; 0.03162 µM): 0.0367
- increase in dead-cell fraction (INK128/MLN0128; 0.1 µM): 0.0543
- increase in dead-cell fraction (INK128/MLN0128; 0.3162 µM): 0.0671
- increase in dead-cell fraction (INK128/MLN0128; 1 µM): 0.084
- increase in dead-cell fraction (INK128/MLN0128; 3.162 µM): 0.244
- increase in dead-cell fraction ([1]; 0.001 µM): -0.0175
- increase in dead-cell fraction ([1]; 0.003162 µM): 0.001
- increase in dead-cell fraction ([1]; 0.01 µM): 0.0046
- increase in dead-cell fraction ([1]; 0.03162 µM): 0.0008
- increase in dead-cell fraction ([1]; 0.1 µM): 0.0065
- increase in dead-cell fraction ([1]; 0.3162 µM): 0.0014
- increase in dead-cell fraction ([1]; 1 µM): 0.0253
- increase in dead-cell fraction ([1]; 3.162 µM): 0.0252
- increase in dead-cell fraction ([1]; 10 µM): 0.0432
- increase in dead-cell fraction (Ceritinib/LDK378; 0.001 µM): -0.0009
- increase in dead-cell fraction (Ceritinib/LDK378; 0.003162 µM): 0.0007
- increase in dead-cell fraction (Ceritinib/LDK378; 0.01 µM): 0.001
- increase in dead-cell fraction (Ceritinib/LDK378; 0.03162 µM): -0.0017
- increase in dead-cell fraction (Ceritinib/LDK378; 0.1 µM): -0.004
- increase in dead-cell fraction (Ceritinib/LDK378; 0.3162 µM): 0.0015
- increase in dead-cell fraction (Ceritinib/LDK378; 1 µM): 0.0037
- increase in dead-cell fraction (Ceritinib/LDK378; 3.162 µM): 0.0216
- increase in dead-cell fraction ([2]; 0.001 µM): 0.0054
- increase in dead-cell fraction ([2]; 0.003162 µM): 0.0034
- increase in dead-cell fraction ([2]; 0.01 µM): 0.0061
- increase in dead-cell fraction ([2]; 0.03162 µM): 0.0001
- increase in dead-cell fraction ([2]; 0.1 µM): 0.0007
- increase in dead-cell fraction ([2]; 0.3162 µM): -0.0037
- increase in dead-cell fraction ([2]; 1 µM): 0.0003
- increase in dead-cell fraction ([2]; 3.162 µM): 0.0012
- increase in dead-cell fraction ([2]; 10 µM): 0.0111
